Patent US9969699B2, “Cancer cell growth inhibitor, anticancer agent, and method for screening same, as well as novel compound” (Microbial Chemistry Research Foundation, priority 2014, dated 2018)

Assay: Acute toxicity test, intraperitoneal administration
Assay type: in vivo, ICR mice
Conditions: intraperitoneally once, two weeks after
From the text: Two-weeks after the compounds represented by the Structural Formula (1) at the above concentrations were intraperitoneally administered, the mice were dissected and organs thereof were weighed.
Two-weeks after the compounds represented by the Structural Formula (8) at the above concentrations were intraperitoneally administered, the mice were dissected and organs thereof were weighed.

Nc1ccc(Br)cc1-c1nc2ccccc2[nH]c1=O [Structural Formula (1), 3-(2-amino-5-bromophenyl)-2(1H)-quinoxalinone]
Organ weight Heart (0.098 mg/kg/0.2 mL): 115.0 mg
Organ weight Kidney (Left) (0.098 mg/kg/0.2 mL): 139.0 mg
Organ weight Kidney (Right) (0.098 mg/kg/0.2 mL): 147.0 mg
Organ weight Liver (0.098 mg/kg/0.2 mL): 1047.0 mg
Organ weight Lung (0.098 mg/kg/0.2 mL): 160.0 mg
Organ weight Spleen (0.098 mg/kg/0.2 mL): 78.0 mg
Organ weight Thymus (0.098 mg/kg/0.2 mL): 67.0 mg
Organ weight Heart (0.195 mg/kg/0.2 mL): 125.0 mg
Organ weight Kidney (Left) (0.195 mg/kg/0.2 mL): 175.0 mg
Organ weight Kidney (Right) (0.195 mg/kg/0.2 mL): 184.0 mg
Organ weight Liver (0.195 mg/kg/0.2 mL): 1590.0 mg
Organ weight Lung (0.195 mg/kg/0.2 mL): 169.0 mg
Organ weight Spleen (0.195 mg/kg/0.2 mL): 121.0 mg
Organ weight Thymus (0.195 mg/kg/0.2 mL): 83.0 mg
Organ weight Heart (0.39 mg/kg/0.2 mL): 106.0 mg
Organ weight Kidney (Left) (0.39 mg/kg/0.2 mL): 157.0 mg
Organ weight Kidney (Right) (0.39 mg/kg/0.2 mL): 168.0 mg
Organ weight Liver (0.39 mg/kg/0.2 mL): 1350.0 mg
Organ weight Lung (0.39 mg/kg/0.2 mL): 160.0 mg
Organ weight Spleen (0.39 mg/kg/0.2 mL): 95.0 mg
Organ weight Thymus (0.39 mg/kg/0.2 mL): 74.0 mg
Organ weight Heart (0.78 mg/kg/0.2 mL): 115.0 mg
Organ weight Kidney (Left) (0.78 mg/kg/0.2 mL): 163.0 mg
Organ weight Kidney (Right) (0.78 mg/kg/0.2 mL): 159.0 mg
Organ weight Liver (0.78 mg/kg/0.2 mL): 1263.0 mg
Organ weight Lung (0.78 mg/kg/0.2 mL): 167.0 mg
Organ weight Spleen (0.78 mg/kg/0.2 mL): 116.0 mg
Organ weight Thymus (0.78 mg/kg/0.2 mL): 78.0 mg
Organ weight Heart (1.56 mg/kg/0.2 mL): 134.0 mg
Organ weight Kidney (Left) (1.56 mg/kg/0.2 mL): 162.0 mg
Organ weight Kidney (Right) (1.56 mg/kg/0.2 mL): 169.0 mg
Organ weight Liver (1.56 mg/kg/0.2 mL): 1472.0 mg
Organ weight Lung (1.56 mg/kg/0.2 mL): 178.0 mg
Organ weight Spleen (1.56 mg/kg/0.2 mL): 103.0 mg
Organ weight Thymus (1.56 mg/kg/0.2 mL): 85.0 mg
Organ weight Heart (3.125 mg/kg/0.2 mL): 135.0 mg
Organ weight Kidney (Left) (3.125 mg/kg/0.2 mL): 193.0 mg
Organ weight Kidney (Right) (3.125 mg/kg/0.2 mL): 191.0 mg
Organ weight Liver (3.125 mg/kg/0.2 mL): 1558.0 mg
Organ weight Lung (3.125 mg/kg/0.2 mL): 179.0 mg
Organ weight Spleen (3.125 mg/kg/0.2 mL): 150.0 mg
Organ weight Thymus (3.125 mg/kg/0.2 mL): 99.0 mg
Organ weight Heart (6.25 mg/kg/0.2 mL): 114.0 mg
Organ weight Kidney (Left) (6.25 mg/kg/0.2 mL): 167.0 mg
Organ weight Kidney (Right) (6.25 mg/kg/0.2 mL): 163.0 mg
Organ weight Liver (6.25 mg/kg/0.2 mL): 1412.0 mg
Organ weight Lung (6.25 mg/kg/0.2 mL): 178.0 mg
Organ weight Spleen (6.25 mg/kg/0.2 mL): 104.0 mg
Organ weight Thymus (6.25 mg/kg/0.2 mL): 68.0 mg
Organ weight Heart (12.5 mg/kg/0.2 mL): 107.0 mg
Organ weight Kidney (Left) (12.5 mg/kg/0.2 mL): 161.0 mg
Organ weight Kidney (Right) (12.5 mg/kg/0.2 mL): 163.0 mg
Organ weight Liver (12.5 mg/kg/0.2 mL): 1120.0 mg
Organ weight Lung (12.5 mg/kg/0.2 mL): 159.0 mg
Organ weight Spleen (12.5 mg/kg/0.2 mL): 98.0 mg
Organ weight Thymus (12.5 mg/kg/0.2 mL): 63.0 mg
Organ weight Heart (25 mg/kg/0.2 mL): 111.0 mg
Organ weight Kidney (Left) (25 mg/kg/0.2 mL): 157.0 mg
Organ weight Kidney (Right) (25 mg/kg/0.2 mL): 170.0 mg
Organ weight Liver (25 mg/kg/0.2 mL): 1316.0 mg
Organ weight Lung (25 mg/kg/0.2 mL): 147.0 mg
Organ weight Spleen (25 mg/kg/0.2 mL): 98.0 mg
Organ weight Thymus (25 mg/kg/0.2 mL): 92.0 mg
